Source: the supplement of paper PMC11451515

System: NOMO1
Test: cell viability relative to DMSO control; higher = less cytotoxic
Settings: 48 h
Method in brief: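 NOMO1, SEM and P12-Ichikawa leukemia cells spent at least four passages adapting to each medium before use. They were seeded at 500 cells/well (NOMO1, SEM) or 1000 cells/well (P12-Ichikawa) in 5 μl in 1536-well plates and pin-dosed with library compounds in DMSO at 11 threefold steps from 47 μM down to 0.79 nM. After 48 h at 37°C, CellTiter-Glo One luminescence was read. Viability is reported as a percentage of the DMSO wells on each plate, with cell-free wells as background.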

[1] = HPLM + 10% dialyzed FBS, 0.000781 µM
[2] = HPLM + 10% dialyzed FBS, 0.00234 µM
[3] = HPLM + 10% dialyzed FBS, 0.00702 µM
[4] = HPLM + 10% dialyzed FBS, 0.0211 µM
[5] = HPLM + 10% dialyzed FBS, 0.0632 µM
[6] = HPLM + 10% dialyzed FBS, 0.19 µM
[7] = HPLM + 10% dialyzed FBS, 0.569 µM
[8] = HPLM + 10% dialyzed FBS, 1.71 µM
[9] = HPLM + 10% dialyzed FBS, 5.12 µM
[10] = HPLM + 10% dialyzed FBS, 15.4 µM
[11] = HPLM + 10% dialyzed FBS, 46.1 µM
[12] = RPMI 5 mM glucose + 10% FBS, 0.000781 µM
[13] = RPMI 5 mM glucose + 10% FBS, 0.00234 µM
[14] = RPMI 5 mM glucose + 10% FBS, 0.00702 µM
[15] = RPMI 5 mM glucose + 10% FBS, 0.0211 µM
[16] = RPMI 5 mM glucose + 10% FBS, 0.0632 µM
[17] = RPMI 5 mM glucose + 10% FBS, 0.19 µM
[18] = RPMI 5 mM glucose + 10% FBS, 0.569 µM
[19] = RPMI 5 mM glucose + 10% FBS, 1.71 µM
[20] = RPMI 5 mM glucose + 10% FBS, 5.12 µM
[21] = RPMI 5 mM glucose + 10% FBS, 15.4 µM
[22] = RPMI 5 mM glucose + 10% FBS, 46.1 µM
[23] = RPMI 5 mM glucose + 10% dialyzed FBS, 0.000781 µM
[24] = RPMI 5 mM glucose + 10% dialyzed FBS, 0.00234 µM
[25] = RPMI 5 mM glucose + 10% dialyzed FBS, 0.00702 µM
[26] = RPMI 5 mM glucose + 10% dialyzed FBS, 0.0211 µM
[27] = RPMI 5 mM glucose + 10% dialyzed FBS, 0.0632 µM
[28] = RPMI 5 mM glucose + 10% dialyzed FBS, 0.19 µM
[29] = RPMI 5 mM glucose + 10% dialyzed FBS, 0.569 µM
[30] = RPMI 5 mM glucose + 10% dialyzed FBS, 1.71 µM
[31] = RPMI 5 mM glucose + 10% dialyzed FBS, 5.12 µM
[32] = RPMI 5 mM glucose + 10% dialyzed FBS, 15.4 µM
[33] = RPMI 5 mM glucose + 10% dialyzed FBS, 46.1 µM

Compound | cell viability [1] [%] | cell viability [2] [%] | cell viability [3] [%] | cell viability [4] [%] | cell viability [5] [%] | cell viability [6] [%] | cell viability [7] [%] | cell viability [8] [%] | cell viability [9] [%] | cell viability [10] [%] | cell viability [11] [%] | cell viability [12] [%] | cell viability [13] [%] | cell viability [14] [%] | cell viability [15] [%] | cell viability [16] [%] | cell viability [17] [%] | cell viability [18] [%] | cell viability [19] [%] | cell viability [20] [%] | cell viability [21] [%] | cell viability [22] [%] | cell viability [23] [%] | cell viability [24] [%] | cell viability [25] [%] | cell viability [26] [%] | cell viability [27] [%] | cell viability [28] [%] | cell viability [29] [%] | cell viability [30] [%] | cell viability [31] [%] | cell viability [32] [%] | cell viability [33] [%]
Cn1c(=O)c2c(ncn2CC(O)CO)n(C)c1=O (stereo not given) | 106 | 109 | 114 | 119 | 121 | 136 | 103 | 120 | 130 | 103 | 111 | 119 | 98 | 100 | 109 | 104 | 108 | 103 | 103 | 103 | 95.3 | 58.2 | 116 | 116 | 115 | 128 | 118 | 115 | 128 | 120 | 111 | 99.4 | 62.7
OC1=C(C=CC=C1)C2=CC=C(C=C2)C3=CSC4=C3C(=C(/C#N)C(=O)N4)/O | 119 | 119 | 120 | 102 | 112 | 110 | 119 | 118 | 126 | 105 | 102 |  |  |  |  |  |  |  |  |  |  |  | 117 | 123 | 131 | 139 | 122 | 112 | 122 | 119 | 114 | 123 | 109
Cc1cnc(Nc2ccc(OCCN3CCCC3)cc2)nc1Nc1cccc([S+](=O)([O-])NC(C)(C)C)c1 | 78.8 | 102 | 109 | 116 | 117 | 126 | 102 | 114 | 110 | 100 | 84.3 | 105 | 107 | 104 | 90.3 | 108 | 110 | 98 | 97.3 | 114 | 92.7 | 102 | 87.5 | 106 | 99.6 | 105 | 100 | 102 | 103 | 102 | 103 | 102 | 100
Clc1ccc(COC(Cn2ccnc2)c2ccc(Cl)cc2Cl)cc1 (stereo not given) | 118 | 119 | 105 | 115 | 111 | 104 | 111 | 127 | 132 | 118 | 93.2 | 107 | 104 | 110 | 123 | 111 | 109 | 121 | 117 | 119 | 110 | 102 | 114 | 112 | 103 | 121 | 115 | 125 | 121 | 120 | 114 | 121 | 83.6
CN(C(=O)c1ccc(F)cc1C(F)(F)F)C1CCN(c2nnc(-c3ccnn3C)c3ccccc23)CC1 | 61.1 | 79 | 87.1 | 83.2 | 102 | 97.8 | 83.4 | 95.2 | 85.2 | 88.8 | 77.9 | 66 | 71.6 | 69.4 | 83.3 | 82.3 | 84.8 | 11.9 | 82.8 | 79.6 | 76.6 | 75 | 76 | 85.4 | 79.9 | 86.8 | 77.6 | 86.3 | 77.1 | 80.7 | 82.2 | 78 | 41.9
O=P(O)(O)C(O)(Cc1cccnc1)P(=O)(O)[O][Na] (stereo not given) | 71.5 | 102 | 98.3 | 33 | 107 | 97.2 | 119 | 116 | 116 | 102 | 106 | 85.3 | 93.6 | 90.8 | 22.8 | 90.7 | 85 | 93 | 84.7 | 83.7 | 85.9 | 86.6 | 76.4 | 80.2 | 82.8 | 25.2 | 88.2 | 93.5 | 103 | 92.6 | 97.6 | 93.6 | 106
O=C(Oc1ccc([N+](=O)[O-])cc1)N1CCN(Cc2cccc(Oc3ccccc3)c2)CC1 | 115 | 110 | 112 | 113 | 113 | 126 | 104 | 126 | 120 | 102 | 122 | 95.6 | 101 | 112 | 113 | 113 | 123 | 110 | 105 | 110 | 109 | 112 | 93.9 | 98.5 | 103 | 99.8 | 99.9 | 98.3 | 103 | 114 | 104 | 112 | 105
